“Also recorded” adds a separate entry of the source.
Assays:
[1] = target: SCF-βTrCP / NRF2 (Homo sapiens, UniProt Q9Y297); assay: In vitro ubiquitination of phosphorylated NRF2 by the βTrCP complex; format: biochemical; settings: for ubiquitination (polyubiquitination) of NRF2 by βTrCP: PHAR 3 μM, 1 hour at 25° C., western blot
Procedure: In vitro kinase assay and in vitro ubiquitination. For the recognition and degradation of NRF2 by βTrCP, the serines 335, 338, 342 and 347 located at the Neh6 domain of NRF2 need to be previously phosphorylated by the kinase GSK-3β (FIG. 1). Therefore, to obtain the phosphorylated substrate, 20 ng recombinant NRF2-DETGE was used together with 0.5 μg of recombinant GSK-3β incubated at 30° C. for 60 min. The result was analyzed by western blot. After confirming the existence of phosphorylation in the residues of interest, an in vitro ubiquitination assay was carried out using the recombinant proteins that make up the E3 ubiquitin ligase complex. The ubiquitination reaction was carried out using: ATP (2 mM), […], SCF-βTrCP (450 nM), and non-phosphorylated or phosphorylated NRF2 (20 ng), in a specific ubiquitination buffer (30 mM Tris pH 7.6, 5 mM MgCl2, 2 mM dithiothreitol, 100 mM NaCl). Before the ubiquitination reactions, the E1, Cdc34b, and ubiquitin components were incubated together for 2 min to allow the E2 thioester bond to form. The reactions were incubated for 1 hour at 25° C. in the presence or absence of PHAR (3 μM) in order to determine whether or not PHAR inhibits ubiquitination by βTrCP. […] The PI3K/AKT signaling pathway is inhibited, and therefore GSK-3β is activated with the PI3K inhibitor, LY294002. As a result, NRF2 is phosphorylated by GSK-3β and marked for degradation by means of interaction with β-TrCP. Therefore, if PHAR is capable of inhibiting βTrCP-NRF2 interaction, the NRF2 levels will remain stable independently of the activation and phosphorylation by GSK-3β. […]
FIG. 6. […] Phosphorylation at residues 335, 338, 342 and 347 was analyzed by western blot. […] Polyubiquitinated NRF2 was detected by western blot with anti-ubiquitin antibody. […] E), densitometric analysis of NRF2 protein levels of the representative immunoblot of (D), expressed as a ratio of NRF2/GAPDH. […] G), densitometric analysis of NRF2 and HO1 protein levels of the representative immunoblots of (F), expressed as a ratio of NRF2 and HO1/GAPDH. […]

[2] = tested on: β-TrCP1 and β-TrCP2; assay: NRF2/HO-1 induction after lentiviral silencing of β-TrCP1/2 in Keap1−/− MEFs; format: cell-based, mouse
Procedure: In vitro kinase assay and in vitro ubiquitination. For the recognition and degradation of NRF2 by βTrCP, the serines 335, 338, 342 and 347 located at the Neh6 domain of NRF2 need to be previously phosphorylated by the kinase GSK-3β (FIG. 1). Therefore, to obtain the phosphorylated substrate, 20 ng recombinant NRF2-DETGE was used together with 0.5 μg of recombinant GSK-3β incubated at 30° C. for 60 min. The result was analyzed by western blot. After confirming the existence of phosphorylation in the residues of interest, an in vitro ubiquitination assay was carried out using the recombinant proteins that make up the E3 ubiquitin ligase complex. The ubiquitination reaction was carried out using: ATP (2 mM), […], SCF-βTrCP (450 nM), and non-phosphorylated or phosphorylated NRF2 (20 ng), in a specific ubiquitination buffer (30 mM Tris pH 7.6, 5 mM MgCl2, 2 mM dithiothreitol, 100 mM NaCl). Before the ubiquitination reactions, the E1, Cdc34b, and ubiquitin components were incubated together for 2 min to allow the E2 thioester bond to form. The reactions were incubated for 1 hour at 25° C. in the presence or absence of PHAR (3 μM) in order to determine whether or not PHAR inhibits ubiquitination by βTrCP. […] The PI3K/AKT signaling pathway is inhibited, and therefore GSK-3β is activated with the PI3K inhibitor, LY294002. As a result, NRF2 is phosphorylated by GSK-3β and marked for degradation by means of interaction with β-TrCP. Therefore, if PHAR is capable of inhibiting βTrCP-NRF2 interaction, the NRF2 levels will remain stable independently of the activation and phosphorylation by GSK-3β. The obtained result corroborates this. • 3. Using lentiviral silencing of the two isoforms described for β-TrCP (β-TrCP1 and β-TrCP2) in MEFs originating from Keap1 knockout mice (Keap′1−/−).
FIG. 6. PHAR increases NRF2 protein levels in a β-TrCP-dependent manner. A) In vitro phosphorylation of recombinant NRF2-DETGE by recombinant GSK-3β. Phosphorylation at residues 335, 338, 342 and 347 was analyzed by western blot. B) In vitro ubiquitination of NRF2 or pNRF2 by the βTrCP complex. NRF2 and pNRF2 (20 ng) were incubated at 25° C. for 1 h with purified ubiquitin, E1/cdc34b, βTrCP/Skp1 and Cull/Rbx1 as indicated in the presence or absence of PHAR […] or vehicle (DMSO). Polyubiquitinated NRF2 was detected by western blot with anti-ubiquitin antibody. […] E), densitometric analysis of NRF2 protein levels of the representative immunoblot of (D), expressed as a ratio of NRF2/GAPDH. […] G), densitometric analysis of NRF2 and HO1 protein levels of the representative immunoblots of (F), expressed as a ratio of NRF2 and HO1/GAPDH. […]

Chain of SCF-βTrCP / NRF2 (Q9Y297 whole entry, the tested form may be a part): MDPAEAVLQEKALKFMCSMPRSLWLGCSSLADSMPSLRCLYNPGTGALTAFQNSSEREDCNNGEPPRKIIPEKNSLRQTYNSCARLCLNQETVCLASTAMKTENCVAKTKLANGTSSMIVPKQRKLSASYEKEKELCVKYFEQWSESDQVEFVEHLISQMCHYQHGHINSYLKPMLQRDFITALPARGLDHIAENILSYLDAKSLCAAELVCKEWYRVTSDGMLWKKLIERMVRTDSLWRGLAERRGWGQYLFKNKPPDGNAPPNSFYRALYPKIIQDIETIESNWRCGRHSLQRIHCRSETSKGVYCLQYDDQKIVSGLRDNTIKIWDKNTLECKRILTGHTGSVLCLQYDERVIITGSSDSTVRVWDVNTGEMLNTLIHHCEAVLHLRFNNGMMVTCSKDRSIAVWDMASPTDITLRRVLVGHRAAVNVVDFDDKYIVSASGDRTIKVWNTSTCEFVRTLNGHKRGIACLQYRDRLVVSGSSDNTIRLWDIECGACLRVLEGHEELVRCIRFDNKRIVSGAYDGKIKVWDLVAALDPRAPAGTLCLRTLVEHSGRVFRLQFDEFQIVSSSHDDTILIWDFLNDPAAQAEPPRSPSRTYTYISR
Chain of SCF-βTrCP / NRF2 (P63208 whole entry partner, the tested form may be a part): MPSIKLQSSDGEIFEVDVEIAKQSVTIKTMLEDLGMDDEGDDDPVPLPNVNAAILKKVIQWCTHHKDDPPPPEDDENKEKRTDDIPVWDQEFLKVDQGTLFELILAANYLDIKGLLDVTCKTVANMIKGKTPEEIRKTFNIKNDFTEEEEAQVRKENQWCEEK
Chain of SCF-βTrCP / NRF2 (Q13616 whole entry partner, the tested form may be a part): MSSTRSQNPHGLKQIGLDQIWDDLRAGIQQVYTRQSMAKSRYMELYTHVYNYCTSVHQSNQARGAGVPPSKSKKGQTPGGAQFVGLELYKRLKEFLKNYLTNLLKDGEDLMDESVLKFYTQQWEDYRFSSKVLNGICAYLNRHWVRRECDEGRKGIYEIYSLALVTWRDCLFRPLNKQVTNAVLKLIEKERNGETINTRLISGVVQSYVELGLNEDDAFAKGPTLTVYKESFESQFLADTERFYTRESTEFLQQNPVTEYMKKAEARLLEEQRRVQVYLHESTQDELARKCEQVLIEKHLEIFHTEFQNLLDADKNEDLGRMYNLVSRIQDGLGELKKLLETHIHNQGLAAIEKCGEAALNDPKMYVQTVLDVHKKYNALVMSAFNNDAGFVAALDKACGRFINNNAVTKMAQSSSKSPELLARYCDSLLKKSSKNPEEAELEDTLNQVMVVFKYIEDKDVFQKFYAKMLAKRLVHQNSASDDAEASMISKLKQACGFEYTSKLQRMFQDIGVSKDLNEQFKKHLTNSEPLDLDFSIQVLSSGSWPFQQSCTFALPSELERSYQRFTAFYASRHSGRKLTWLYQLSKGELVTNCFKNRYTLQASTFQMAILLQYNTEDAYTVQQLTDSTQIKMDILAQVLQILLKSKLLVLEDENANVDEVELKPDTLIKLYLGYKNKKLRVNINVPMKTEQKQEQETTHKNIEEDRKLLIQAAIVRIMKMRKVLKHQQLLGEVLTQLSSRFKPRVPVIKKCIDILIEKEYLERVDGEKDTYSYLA
Chain of SCF-βTrCP / NRF2 (P62877 whole entry partner, the tested form may be a part): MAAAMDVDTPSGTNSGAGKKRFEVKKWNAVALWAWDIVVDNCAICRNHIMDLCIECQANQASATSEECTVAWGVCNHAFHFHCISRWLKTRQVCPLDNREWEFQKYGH

O=C1[C@@H]2[C@H](Cc3c[nH]c4ccccc34)N[C@]3(C(=O)Nc4ccc(Cl)cc43)[C@@H]2C(=O)N1c1ccc2c(c1)OCCO2 [PHAR]
ubiquitination (polyubiquitination) of NRF2 by βTrCP [1]: prevents the ubiquitination of NRF2 | ubiquitination (polyubiquitination) of NRF2 by βTrCP ([1]; listed as PH): polyubiquitination was considerably lower | concentration from which substrate polyubiquitination starts to be reduced ([1]; dose curve 3-3000 nM): 100 nM | HO-1 accumulation in sh β-TrCP1/2 cells compared with shCTRL ([2]; PHAR 10 μM): considerably lower; also recorded: lower in cells lacking β-TrCP1/2 | Hmox1 and Nqo1 mRNA induction in sh β-TrCP1/2 cells ([2]; PHAR 10 μM): induction generated by PHAR is lost | NRF2 levels in shCTRL cells ([2]; PHAR 10 μM, 2, 4, 8 h): increase in NRF2 levels from 2 h to 8 h | NRF2 accumulation in sh β-TrCP1/2 cells compared with shCTRL ([2]; silencing about 50%, PHAR 10 μM): considerably lower; also recorded: significantly lower compared with shCTRL cells

From patent US12590100B2, “Tetrahydro-spiroindoline-pyrrolopyrrole-triones inhibitors of the NRF2-β-TrCP interaction for use in the treatment of fatty liver disease” (Universidad Autonoma De Madrid, priority 2021, dated 2026)
